{
  "source": "patent EP0751957B1",
  "about": "“PEPTIDE FRAGMENTS OF MICROBIAL STRESS PROTEINS AND PHARMACEUTICAL COMPOSITION MADE THEREOF FOR THE TREATMENT AND PREVENTION OF INFLAMMATORY DISEASES” (priority 1994, dated 2004)",
  "assay_type_in_all_cases": "cell-based, Lewis rats",
  "key": {"[1]": {"tested_on": "primed lymph node cells (PLNC)", "assay": "T cell proliferation assay, PLNC from peptide-immunised rats", "settings": "PLNC 10 days after immunisation with peptide 176-190 (100 µg/DDA); in vitro peptide 20 µg/ml", "experimental": "Immunisations with synthetic peptides and primed lymph node populations: Rats were immunised with 50 µg of synthetic peptide in PBS/DDA in each hind footpad (i.e. 50 µg/footpad, 100 µg/rat). Ten days later, draining popliteal lymph nodes were removed, disaggregated, washed three times and used as a source of primed lymph node cells (PLNC). In some experiments, PLNC were derived as pooled inguinal and popliteal lymph nodes from AA rats 35-42 days post Mt immunisation.\n(§1) T cell proliferation assays: PLNC were cultured in triplicate in 200 µl flat bottom microtitre wells (Costar) at 2 x 10^5 cells per well with or without antigen. In initial experiments PLNC were tested for responsiveness to individual peptides at concentrations of 5 and 20 µg/ml, and Mt, hsp65 and PPD over a range of concentrations. Concanavalin A (2 µg/ml) was used as a positive control for T cell proliferation. Cultures were incubated for 96 h at 37°C in a humidified atmosphere of 5% CO2. Cultures were pulsed for the final 16 h with [^3H] TdR (Amersham, U.K., 1 uCi/well) and TdR uptake measured using a liquid scintillation β counter. Assays using T cell lines were performed as above using 2 x 10^4 line cells per well with irradiated (30 Gy) syngeneic accessory cells (either 3 x 10^5 splenocytes/well or 10^6 thymocytes/well). Results are expressed as mean counts per minute (cpm) of triplicate cultures. In experiments where responses to Ag were low, responses were considered significant if the stimulation index (S.I. = […]) was greater than two and Student's t tests gave p < 0.01.\nTo determine whether immunisation of rats with synthetic peptides was effective at priming for T cell reactivity to hsp65 epitopes, in vitro proliferative responses following immunisation with 100 µg of peptide each containing individual T cell epitopes were examined. PLNC isolated ten days after immunisation were tested for response to the immunising peptide, overlapping peptides and to hsp65 (Table II). PLNC responses were observed after immunisation with seven of the nine peptides. Responses were not seen after immunisation with peptides 386-400 and 511-525.\n(§2) T cell responses by immunisation with hsp65 peptides. Rats were immunised with synthetic peptides containing individual hsp65 epitopes (100 µg peptide/DDA per rat). Ten days later PLNC were isolated and tested for responses to overlapping peptides (20 µg/ml). Peptide-specific T cell lines were generated by bulk in vitro stimulation of PLNC with immunising peptide. Lines were tested for responses to overlapping peptides (10 µg/ml). […] Results are expressed as mean cpm of triplicate cultures. All SEM were less than 20%."}, "[2]": {"tested_on": "Peptide-specific T cell lines", "assay": "T cell proliferation assay, peptide-specific T cell lines from peptide-immunised rats", "settings": "T cell line from 176-190-immunised PLNC; in vitro peptide 10 µg/ml", "experimental": "as §1\nT cell lines: T cell lines with specificity for mycobacterial hsp65 or peptides were generated by bulk stimulation of either hsp65-PLNC or Mt-PLNC. PLNC were cultured at 5 x 10^6/ml in culture medium supplemented with 2% normal rat serum (NRS) in the presence of 10 µg/ml Ag. After three days viable cells were harvested using a ficoll-isopaque gradient and cultured for a further four days in culture medium + 5% FCS and 5% TCGF (Con A-activated rat spleen supernatant). Seven days after initial stimulation lines were restimulated with irradiated spleen accessory cells and 10 µg/ml Ag in culture medium + NRS. Lines were maintained ir. this seven day restimulation cycle. Short term epitope-specific T cell lines were also generated from rats immunised with synthetic peptides. Peptide-PLNC were cultured as above in the presence of 10 µg/ml peptide.\nBulk stimulation generated T cell lines to eight of the nine peptides tested. These eight lines were tested for specificity after four in vitro restimulations (Table II). All responded to the immunising peptide and, to some extent, to hsp65.\nas §2"}, "[3]": {"tested_on": "hsp65-specific T cell line", "assay": "T cell proliferation assay, hsp65-specific T cell line", "settings": "short term lines from ten day hsp65-PLNC, seven days after first restimulation", "experimental": "as §1\nT cell lines: T cell lines with specificity for mycobacterial hsp65 or peptides were generated by bulk stimulation of either hsp65-PLNC or Mt-PLNC. PLNC were cultured at 5 x 10^6/ml in culture medium supplemented with 2% normal rat serum (NRS) in the presence of 10 µg/ml Ag. […]"}},
  "data": [
    {"substance": "peptide 176-190: synthetic 15mer of mycobacterial hsp65 containing the AA-associated epitope 180-188", "values": [
      {"measurement": "CPM PLNC", "setting": "[1]", "value": 57707, "unit": "cpm"},
      {"measurement": "CPM T Cell Line", "setting": "[2]", "value": 31400, "unit": "cpm"},
      {"measurement": "hsp65-specific T cell line response to peptide", "setting": "[3]", "value": "strong responses"}
    ]}
  ]
}
